The term AUC(0-t) denotes the area under the concentration-time curve up to a stated or last time point. Low values mean low exposure, high ones high exposure. For orientation: Tmax means the time from dosing to the highest level. The half-life is how long it takes for the measured level to halve.

Data on one compound can be found in publication PMC5703532, “Establishment of an indirect ELISA for detection of the novel antifibrotic peptide M10” (PLoS ONE, 2017).

Data set [1] relates to bleomycin-induced mouse model of lung fibrosis. The note with it: cited from earlier work. From the text: (§1) We recently discovered a 10 amino acid antifibrotic peptide (M10) with antifibrotic properties in vitro and in a murine model of lung fibrosis, which is a natural cleavage product by caspase-3 of the cytoplasmic tail of the c-MET receptor tyrosine kinase. Following binding of hepatocyte growth factor (HGF), c-MET undergoes auto phosphorylation at tyrosine residues in its cytoplasmic domain and initiates a cascade of signal transduction events leading to specific cellular responses implicated in embryonic development and tissue regeneration after injury.

Another data set has as its system Smad2. The note with it: cited from earlier work.
Source text: as §1

In data set [2] the test system is human lung and skin fibroblasts. To be noted: cited from earlier work.
Source text: as §1

The conditions of data set [3]: in vivo, ip, 1 mg/kg.
Description: (§2) Mice (n = 30), C57BL/6 males and females 8–10 weeks old weighing 20–25 g, purchased from Jackson Laboratories (Bar Harbor, ME) were used in this study. Mice were housed in ventilated racks in specific pathogen free conditions and were provided with food and water available ad libitum. M10 peptide was solubilized in water and administered intraperitoneally in a dose of 1 mg/kg. Mice were sacrificed by isoflurane overdose, and blood samples were collected by cardiac puncture in the presence of 0.01% of Na-Citrate at time intervals of 15 min, 30 min, 1, 2, 4, 6, 12, 24, and 48 hours after injection. The blood samples (n = 3/group) were centrifuged at 2500 rpm for 10 min, and plasma samples were stored at -80°C. Plasma samples collected from mice injected with water intraperitoneally (n = 3) were used as a negative control.
(§3) M10 concentration was measured by indirect ELISA developed in our laboratory. Known concentrations of pharmaceutical grade M10 peptide (GenScript, Piscataway, NJ) with purity more than 98% were used to generate the standard curve. Briefly, 100μl of known concentration of M10 (range: 10 ng/ml to 500 ng/ml), blank (PBS without M10), and 100μl of the diluted plasma sample were plated in triplicate in high-affinity polystyrene micro-titer plates. Samples were incubated with gentle rocking overnight at 4°C and blocked with 5% bovine serum albumin in PBS. After washing, samples were incubated for 2 hours at room temperature with anti-cMET rabbit antibody (Santa Cruz Biotechnology, Santa Cruz, CA), followed by 1hour incubation with HRP-conjugated anti-Rabbit IgG (Rockland, Limerick, PA). M10 was detected with ultra-TMB (3, 3’, 5, 5’-tetramethylbenzidine)-substrate, and the reaction was terminated by using 2M sulfuric acid. Absorbance was measured at 450 nm by Spectra Max Plus spectrophotometer. Concentrations of unknown samples were then calculated from their corresponding optical density (OD) values by Softmax Pro 4.8 software (Molecular Devices, Sunnyvale, CA) using the standard curve generated from the known concentrations of M10. Control plasma samples collected from mice with intraperitoneal water injection were run in triplicate with each experiment, mean was calculated, and samples were normalized by subtracting the negative control mean value. Final concentrations were calculated by adjusting the sample dilution factor.
(§4) To obtain the pharmacokinetic profile of M10 in mouse plasma, C57Bl6 mice were injected intraperitoneally with M10 at a dose of 1mg/kg of body weight. Plasma samples were collected by cardiac puncture in the presence of 0.01% of Na-Citrate at time intervals of 15 min, 30 min, 1h, 2h, 4h, 6h, 12 h, 24 h, and 48 h following injection. Samples were diluted in PBS in order to fit within the range of the standard curves and then tested using the M10 ELISA. Concentration of M10 in plasma samples was calculated by Softmax Pro 4.8 software using the standard curve generated from the known concentration of M10. The samples were normalized by subtracting the negative controls represented by plasma samples obtained from mice injected with H2O.
The test system of data set [4] is caspases, thrombin, factor Xa, trypsin and granzyme B. The note with it: cited from earlier work.
The next data set in a line: in vivo. To be noted: both, C57BL/6, mouse, ip, 1 mg/kg.
The mark [5] stands for this setting: Mean M10 concentration in plasma.

Peptide text beside a SMILES is read from it.

Description for in vivo: as §2, §3, §4

As for `C[C@H](NC(=O)[C@@H]1CCCN1C(=O)[C@H](CCCNC(=N)N)NC(=O)[C@@H](N)[C@@H](C)O)C(=O)N[C@@H](CO)C(=O)N[C@@H](Cc1ccccc1)C(=O)N[C@@H](Cc1c[nH]c2ccccc12)C(=O)N[C@@H](CCC(=O)O)C(=O)N[C@H](C(=O)N[C@@H](CO)C(=O)O)[C@@H](C)O` [M10] (H-TRPASFWETS-OH; N-terminus and C-terminus assumed), in data set [1], the Effect on collagen entry is given as “reduces collagen”. Further, the “Interaction with Smad2” value in the data set on Smad2 is reported as “interacts with Smad2”. Further, the Effect on collagen entry in data set [2] is “reduces collagen”. For the same compound, the “Mean M10 concentration in plasma” value in data set [3] (both, C57BL/6, mouse, 24 h) stood at 1216 ng/mL. In addition, in data set [3] (mouse), the “Cmax (peak plasma concentration)” value was found to be 4861.5 ± 11.5 ng/mL and the “Time by which plasma concentration declined to minimal (detectable) levels” value is at most 48 h. The “Resistance to mammalian proteases” value in data set [4] is given as “resistance to many mammalian proteases”. Besides, in the data set “in vivo”, the AUC(0-t) was 72500 ± 2390 ng·h/mL, the Tmax worked out at 6 h and the half-life was 408 ± 42 min. In “in vivo” (setting [5]), this compound came in with a level at 4 h of 3590 ng/mL, a level at 6 h of 4550 ng/mL, a level at 12 h of 3140 ng/mL and a level at 24 h of 801 ng/mL. For the same compound, the level at 48 h in “in vivo” (setting [5]) is 366 ng/mL.
